This is an account of results in patent US20260258425A1, “MALT1 TUMOR INHIBITOR, PHARMACEUTICAL COMPOSITION CONTAINING THE SAME, AND APPLICATIONS THEREOF” (XZYP (BEIJING) BIOTECH CO., LTD, priority 2023, published 2026).

The test system of one data set is MALT1. Kind of data set: Western blot of MALT1 expression in E0771 cells after ASO transfection with Lipofectamine 3000. It is filed as cell-based, mouse. The following applies: ASO final concentration 50 nM, 5 μL Lipofectamine 3000, 48 hours after transfection. From the text: S1. Considering the specificity between the antisense nucleic acid and the target nucleic acid and the hairpin-like structure that may be formed by the base complementarity within the nucleotide sequence of the antisense nucleic acid, the nucleotide sequence of the antisense nucleic acid needs to target the amino acid residues at positions 81 and/or 82 of the death domain (DD) of MALT1; S2. Considering the stability of hybridization and the membrane permeability of the antisense oligonucleotide, select the length of the antisense oligonucleotide, which ranges from 15 to 40 bases; S3. Considering the affinity of the antisense oligonucleotide for the target sequence, since the affinity of GC base pairs is greater than that between AU, increasing the ratio of GC base pairs to AU base pairs in the antisense oligonucleotide can appropriately reduce the length of the antisense oligonucleotide; S4. Set a control, which can be missense or reverse; S5. Use the designed antisense oligonucleotides to inhibit the expression of the same target sequence MALT-1 mRNA, and screen the antisense oligonucleotide with the best inhibitory effect. The specific steps for screening the antisense oligonucleotide with the best inhibitory effect are as follows: • a. […] 2×10^5 E0771 cells into each well of a 12-well plate and incubate overnight; • b. On the day after operation a, transfect the corresponding ASO drug with 5 μL of Lipofectamine™ 3000 until its final concentration is 50 nM; • c. 6 hours after operation b, replace the serum-free medium with medium containing 10% serum; • d. 24 hours after operation c, replace the serum-free medium again; • e. 48 hours after operation d, harvest the obtained protein and perform Western blot experiment. The Western blot results of antisense oligonucleotides targeting E0771 cells after transfection with Lipofectamine™ 3000 are shown in FIG. 5: in this figure, 48 hours after transfection with Lipofectamine™ 3000, 5 μL of Lipofectamine™ 3000 was added to each well of the 12-well plate.
(Immunoblotting shows a protein as a band on a membrane.)

In another data set the test system is ABC DLBCL cells. The conditions noted are these: background statement; cited from earlier work.
Data set [1] has as its system germinal center B-cell (GCB) type DLBCL cells. The following applies: background statement; cells independent of BCR signaling; cited from earlier work.

“Also recorded” adds a separate entry of the source.

As for “AAGTTCATGAGCCTTGGCCC (antisense AAGUUCAUGAGCCUUGGCCC; listed as RNA, chemistry not given here) [ASO C]”, the “inhibition of MALT1 expression (Western blot band)” value (“inhibition of MALT1 expression” below) with MALT1 is given as “good inhibitory results; also recorded: good inhibitory effects”. Consider “AGCCTTGGCCCACTGTAGATT (antisense AGCCUUGGCCCACUGUAGAUU; listed as RNA, chemistry not given here) [ASO A]”, for which, in the data set on MALT1, the “inhibition of MALT1 expression” value is reported as “good inhibitory results; also recorded: good inhibitory effects”. For the substance “CAAGAGCAGATTTATTTTGT (antisense CAAGAGCAGAUUUAUUUUGU; listed as RNA, chemistry not given here) [ASO K]”, the “inhibition of MALT1 expression” value in the data set with MALT1 is listed as “good inhibitory results; also recorded: good inhibitory effects”.

Turning to “GAGGCAGTGCTTGGGAAGGTC (antisense GAGGCAGUGCUUGGGAAGGUC; listed as RNA, chemistry not given here) [ASO I]”, the “inhibition of MALT1 expression” value in the data set with MALT1 is on record as “good inhibitory results; also recorded: good inhibitory effects”. “GGTTTGTGGACTATACTTGT (antisense GGUUUGUGGACUAUACUUGU; listed as RNA, chemistry not given here) [ASO25]”: the “inhibition of MALT1 expression” value with MALT1 was “obvious inhibitory results; also recorded: obvious inhibitory effects”.

Regarding “GTCCAGCCAACACTGCCTTG (antisense GUCCAGCCAACACUGCCUUG; listed as RNA, chemistry not given here) [ASO J]”, the “inhibition of MALT1 expression” value in the data set with MALT1 is recorded as “good inhibitory results; also recorded: good inhibitory effects”. Take “TAGAGGCAGTGCTTGGGAAG (antisense UAGAGGCAGUGCUUGGGAAG; listed as RNA, chemistry not given here) [ASO H]”: the “inhibition of MALT1 expression” value in the data set with MALT1 is “good inhibitory results; also recorded: good inhibitory effects”.

For “TCATGAGCCTTGGCCCACTG (antisense UCAUGAGCCUUGGCCCACUG; listed as RNA, chemistry not given here) [ASO B]”, the “inhibition of MALT1 expression” value in the data set with MALT1 was “obvious inhibitory results; also recorded: obvious inhibitory effects”. Take “TTGTGGACTATACTTGTGTA (antisense UUGUGGACUAUACUUGUGUA; listed as RNA, chemistry not given here) [ASO G]”: in the data set on MALT1, the “inhibition of MALT1 expression” value was “good inhibitory results; also recorded: good inhibitory effects”. Turning to zVRPR-FMK, the “toxicity in ABC DLBCL cells” value in the data set with ABC DLBCL cells is recorded as “induces toxicity”. Further, in data set [1], the “sensitivity of GCB type DLBCL cells to the inhibitor” value is on record as “insensitive”.
